Data on 1 compound can be found in patent US20120028837A1, “RAPID SCREEN FOR REPRODUCTIVE TOXICANTS” (PRESIDENT AND FELLOWS OF HARVARD COLLEGE, priority 2010, published 2012).

SMILES strings stand for the structures.

One data set has as its system xol-1::GFP, nx3 worms. The data set is described as follows: Lethality, chemical sensitivity of xol-1::GFP, nx3 cuticle mutant strain. Format: in vivo, C. elegans. As to conditions: four days. On the procedure:
The sensitivity of the xol-1::GFP, nx3 strain compared to the xol-1::GFP strain was assayed by exposing 25 worms for four days (from eggs to adulthood) to a range of concentration of Bisphenol A: 100 μM, 500 μM and 1 mM. The nx3 cuticle mutation was expected to confer increased sensitivity to BPA.

Data set [1] relates to C. elegans germline. The data set is described as follows: Size of mitotic zone of the germline (DAPI, phospho-histone H3 staining). As to conditions: in vivo. From the text: In C. elegans, the germline is comprised of two main compartments, a mitotic region (the premeiotic tip), where nuclei are under the influence of the distal tip cell that maintains them in a proliferative state; and the meiotic region, where nuclei progress through the stages of Prophase I before being fertilized. The mitotic compartment of the worm gonad following BPA exposure was examined.
BPA bears endocrine disrupting activity in many developmental contexts including gonadal, brain and mammary gland development. BPA has affinity for multiple members of the estrogen receptors family, in particular BPA binds to the human estrogen receptor alpha (ERα) and ERβ as well as estrogen-related receptor gamma (ERR-γ) and in C. elegans with nuclear hormone receptor NHR-14 which also binds estrogen. […] Two hallmarks of exposure to BPA were examined, the decrease in the size of the proliferative zone and the condensation defects observed at diakinesis, as they are both highly penetrant and consistent phenotypes. […] Similarly to the experiments described above, the size of the mitotic zone was quantified as well as condensation defects at diakinesis.
Growing Conditions and Drug Exposures. Worms were cultured according to [23] at 20° C. on NGM plates without cholesterol. […] Exposure was carried from embryogenesis to adulthood by plating sodium hypochloride treated eggs onto drug and control plates and incubated at 20° C. for four days.
Antibody Staining. DAN staining, immunostaining and analysis of stained meiotic nuclei were performed as in [25] except for ATL-1 and AIR-2 antibodies were dissected gonads were subjected to a 1% fixation method as described in [27]. […] The secondary antibodies used were: Cy3 anti-rabbit, FITC anti-guinea-pig and FITC anti-mouse (Jackson Immunochemicals), each at 1:100, Stacks of 0.2 μm slices were captured using a Leica microscope, coupled to the DeltaVision fluorescence microscope system (Applied Precision). […]

Data set [2] relates to C. elegans germline. The data set is described as follows: Synaptonemal complex and chromatin integrity in transition zone and pachytene (HTP-3, SYP-1, HIM-8, DAPI). Format: in vivo. The source says:
To examine meiotic chromosome synapsis in C. elegans following BPA exposure, assembly of the synaptonemal complex was examined by assessing the localization of the axial element protein HTP-3 (a paralogue of the axial component HIM-3 required for proper synapsis and pairing of homologous chromosomes) and the central region protein SYP-1 [45], as the nuclei enter meiosis. As nuclei exit mitosis and progress into meiosis in wild type germlines, HTP-3 and SYP-1 are assembled onto the chromatin as foci and short tracks which increase in length through the transition zone. By pachytene, the polymerization of the SC is completed and both proteins form fully elongated tracks spanning the entire length of the homologous chromosomes. Following exposure to BPA, the kinetics and extent of assembly of HTP-3 and SYP-1 onto the chromatin during transition zone were not affected when compared to control (n=10 gonads).
These abnormal nuclei were not simply apoptotic nuclei as they were not specifically found near the bend of the gonad, where germline nuclei were cleared by apoptosis but instead could be found throughout pachytene. As disruption of the integrity of the SC could lead to a separation of the homologous chromosomes, the localization of the X specific pairing center component HIM-8 was examined. In C. elegans, specific loci, termed pairing centers, on chromosomes allow for the physical interaction between homologous pairs. HIM-8 along with other pairing center components associate with the pairing centers and the nuclear envelope and mediate homologous pairing.

The subject of data set [3] is C. elegans germline. As to conditions: in vivo, 4 days, 1 mM. The source says:
Synapsis and recombination are tightly linked events during pachytene throughout various species, as it is only in the context of a fully assembled SC that crossover recombination can be completed. Indeed, in C. elegans, null mutants of SC components such as syp-1, syp-2, syp-3, syp-4 and him-3, increased levels of RAD-51 foci formation and delayed kinetics of foci turnover are observed during pachytene. Consequently, there is activation of the DNA damage checkpoint leading to increased germ cell apoptosis. Recombination is an essential and highly regulated process for the exchange of information that takes place during prophase I [18]. As nuclei exit mitosis and progress through meiosis, programmed meiotic DNA double strand breaks (DSBs) are formed and processed by several DNA repair proteins including RAD-51 [25, 48]. RAD-51 levels vary greatly during progression through prophase I as it is loaded onto DNA during the process of strand invasion and is removed as DSBs repair progresses. […] As unrepaired recombination intermediates can trigger a DNA-damage checkpoint during pachytene leading to increased germ cell apoptosis, the number of apoptotic nuclei following BPA exposure was measured by Syto-12 staining. […]
Rad-51 Time Course Analysis. The number of RAD-51 foci and their kinetics throughout the seven zones was assessed as described in [25]. […]

The subject of data set [4] is H2B::mCherry; γ-tubulin::GFP transgenic worms. As to conditions: OD57 (pie-1::mCherry::H2B; pie-1::GFP::gamma tubulin), C. elegans, in vivo. On the procedure: 60 first mitosis in ethanol and BPA exposed H2B::mCherry; γ-tubulin::GFP transgenic worms were captured by live imaging. While normal pronuclear fusion and chromosomal alignment and segregation in ethanol controls was observed, the first division of BPA exposed embryos was highly abnormal. […] In some instances, multiple spindle poles were apparent.
Live Imaging. For live imaging, a pie-1::mCherry::H2B; pie-1::GFP::gamma tubulin OD57 strain was used. The strain was incubated at 25° C. 24 hours prior to imaging. Images were captured using the Leica-Deltavision system described above. Worms were immobilized on an agarose pad by sectioning of the head and images of the first cell division were captured at a rate of one image every 10 seconds for 5 minutes.

As for `CC(C)(c1ccc(O)cc1)c1ccc(O)cc1` [BPA, Bisphenol A], the lethality in the data set on xol-1::GFP, nx3 worms (100 μM) is given as 0%; in the data set on xol-1::GFP, nx3 worms (500 μM), 96%; with xol-1::GFP, nx3 worms (1 Mm) it was 100%. In the data set on C. elegans germline [1], the “size of the premeiotic tip a day later” value was “No significant increase”. The “pachytene nuclei with DAPI stained bodies or fragments” value in the data set on C. elegans germline [2] (BPA exposure) is “about 10%”. In the data set on C. elegans germline [2] (BPA exposure vs control), the “kinetics and extent of assembly of HTP-3 and SYP-1 onto chromatin during transition zone” value is reported as “not affected”. For the same compound, in the data set with C. elegans germline [2] (BPA treated worms), the “HIM-8 foci per nucleus throughout pachytene” value is recorded as 1 focus per nucleus. In the data set with C. elegans germline [2] (BPA treated worms), the “chromosome synapsis in pachytene nuclei (SYP-1 staining)” value is “defects in chromosome synapsis”. In the data set on C. elegans germline [3], the “RAD-51 foci in late pachytene (zones 6 and 7)” value is listed as “elevated number of RAD-51 foci”. Besides, in data set [4], the “one-cell embryos failing to align on the metaphase plate and/or segregate properly” value is reported as 9/60.
